Reference: patent US8709449B2, “Methods and compositions for improving photodynamic therapy through administration of lipids” (Biolitec Pharma Marketing Ltd, priority 2004, dated 2014)

Assays:
[1] = Skin fluorescence in a dog after simultaneous injection of mTHPC and Lipofundin; format: in vivo; settings: mTHPC diluted in Lipofundin to 0.75 mg/ml, simultaneous bolus injection
Method: FIG. 4—Graph of results of skin fluorescence in sarcoma and skin of a dog after simultaneous injection of mTHPC and Lipofundin.
In this example, a standard mTHPC solution, having 4 mg of mTHPC per ml of solution (4 mg/ml), was diluted in Lipofundin until the concentration of mTHPC in the mixture is 0.75 mg/ml. The mixture was then injected, thus both the photosensitizer and phospholipids were simultaneously injected. […] As is shown in FIG. 4, after only 6 hours, the fluorescence of the skin was substantially the same as that measured prior to injection, thus the skin was no longer photosensitive after this short amount of time.

[2] = mTHPC concentration in tumor, skin and plasma of mice after injection (Trial 1 mTHPC, Trial 2 LMF); format: in vivo, mouse
Method: FIG. 1—Graph showing meta-tetra(hydroxyphenyl)chlorin (“mTHPC”) concentration in tumor, skin and blood of a mouse after a dose of 10 μg mTHPC.
FIG. 2—Graph showing mTHPC concentration in tumor, skin and blood of a mouse after a dose of 5 μg mTHPC solubilized in Lipofundin MCT 10% (“LMF”).
This formulation is abbreviated “LMF”.

[3] = Clinical monitoring of Foscan skin fluorescence by OBS in patients with basal-cell cancer after Foscan PDT; format: in vivo, human; settings: ten patients
Method: Ten patients (6 male, 4 female) with basal-cell cancer (BCC) of the skin were treated with Foscan PDT course having a drug dose of 0.05 mg/kg, a drug-light interval 48 hours, and a 50 J/cm^2 light dose. Immediately after the laser treatment these patients were given intravenous drop infusions of 10% Lipofundin (250 ml). Patients were administered a second infusion of 10% Lipofundin solution (250 ml) the next day.
A group of ten patients (6 male, 4 female) with BCC of the skin, were administered Foscan PDT course having a drug dose of 0.05 mg/kg, a drug-light interval 48 hours, and a 50 J/cm^2 light dose. No 10% Lipofundin infusions were administered post-irradiation.
A computer-based spectrometer Optical Biopsy System (OBS) specially tuned for clinical monitoring of skin fluorescence was used to detect and measure skin fluorescence. The OBS uses a 400 nm diode laser to induce FOSCAN fluorescence (wavelength 655 nm) which is then detected and measured by the OBS spectrometer.
Fluorescence measurements were performed in intact skin of the cheek at certain time points after Foscan injection. Fluorescence monitoring began 2 days after Foscan administration and was continued for 7 weeks following Foscan administration. All measurements were performed by using contact tip (FD-1 Handstuck). Each fluorescence measurement was performed 4 times, all results were recorded, and the average value was used for further analysis.

- skin fluorescence after injection [1]: rapid decrease in skin fluorescence
- time after which skin fluorescence was substantially the same as prior to injection [1]: 6 h
- time of peak tumor concentration of mTHPC ([2]; Trial 1: mTHPC 10 μg per mouse, Trial 2: LMF, 5 μg mTHPC per mouse solubilized in Lipofundin): 24 h
- skin concentration in Trial 1 relative to skin concentration after LMF injection ([2]; after 24 hours, Trial 1 dose twice that of Trial 2): almost four times
- tumor concentration in Trial 1 after 12 hours relative to peak tumor concentration in Trial 2 ([2]; mTHPC 10 μg per mouse, 12 hours, versus LMF peak): ⅔
- concentration at 24 h ([2]; skin, other: injection (site not specified), Trial 1, mTHPC 10 μg per mouse, after 24 hours): ~260 ng/g
- Number of patients exhibiting no detectable skin fluorescence as detected by OBS ([3]; 7 days after Foscan application, Control Group: Foscan 0.05 mg/kg PDT, no Lipofundin infusions): 0
- Number of patients exhibiting no detectable skin fluorescence as detected by OBS ([3]; 7 days after Foscan application, Experimental Group: Foscan 0.05 mg/kg PDT plus two 250 ml 10% Lipofundin infusions after irradiation): 0
- Number of patients exhibiting no detectable skin fluorescence as detected by OBS ([3]; 14 days after Foscan application, Control Group: Foscan 0.05 mg/kg PDT, no Lipofundin infusions): 0
- Number of patients exhibiting no detectable skin fluorescence as detected by OBS ([3]; 14 days after Foscan application, Experimental Group: Foscan 0.05 mg/kg PDT plus two 250 ml 10% Lipofundin infusions after irradiation): 2
- Number of patients exhibiting no detectable skin fluorescence as detected by OBS ([3]; 21 days after Foscan application, Control Group: Foscan 0.05 mg/kg PDT, no Lipofundin infusions): 2
- Number of patients exhibiting no detectable skin fluorescence as detected by OBS ([3]; 21 days after Foscan application, Experimental Group: Foscan 0.05 mg/kg PDT plus two 250 ml 10% Lipofundin infusions after irradiation): 5
- Number of patients exhibiting no detectable skin fluorescence as detected by OBS ([3]; 28 days after Foscan application, Control Group: Foscan 0.05 mg/kg PDT, no Lipofundin infusions): 7
- Number of patients exhibiting no detectable skin fluorescence as detected by OBS ([3]; 28 days after Foscan application, Experimental Group: Foscan 0.05 mg/kg PDT plus two 250 ml 10% Lipofundin infusions after irradiation): 10
- Number of patients exhibiting no detectable skin fluorescence as detected by OBS ([3]; 35 days after Foscan application, Control Group: Foscan 0.05 mg/kg PDT, no Lipofundin infusions): 10
- Number of patients exhibiting no detectable skin fluorescence as detected by OBS ([3]; 35 days after Foscan application, Experimental Group: Foscan 0.05 mg/kg PDT plus two 250 ml 10% Lipofundin infusions after irradiation): 10
Structure (SMILES): Oc1cccc(-c2c3nc(c(-c4cccc(O)c4)c4ccc([nH]4)c(-c4cccc(O)c4)c4nc(c(-c5cccc(O)c5)c5ccc2[nH]5)CC4)C=C3)c1 [mTHPC, meta-tetra(hydroxyphenyl)chlorin]
